# Experimental data published in patent US8461082B2, “Herbicidal composition and method for removing unwanted foliage” (priority 2006, dated 2013).
# Key:
# [1] = Examples 4-6 mixing in 1000 L commercial spray tank, dissolution and pH; assay type: physicochemical
# Description: A commercial “Silvan” Trailing Boom Spray fitted with a 1000 L tank was used for this experiment. The boom was 10 m wide.
# The glyphosate material used was glyphosate acid (purity 95%) with a particle size where 95% can pass through a 1.2 mm sieve.
# The spray tank was filled with 900 L of water. The recirculation or agitation system was driven by a power take off (“PTO”) from the tractor. The recirculation system consisted of a wet boom, submerged at the base of the tank with outlets to one side of the tank's midline. […] This is acceptable agitation by commercial spray boom standards.
# With the PTO operating, a blend made from 0.979 kg of the surfactant Empigen BB and 1.57 kg of the monoethanolamine was poured into the tank and allowed to disperse for one minute.
# 4.26 kg of glyphosate acid was then tipped into the water.
# A commercial “Silvan” brand Trailing Boom Spray fitted with a 1000 L tank was use for this experiment. The boom was 10 m wide.
# Glyphosate acid (purity 95%) with a particle size where 95% can pass through a 0.5 mm sieve.
# The spray tank was filled with 900 L of water. The recirculation or agitation system was driven by a PTO from the tractor. The recirculation system consisted of a wet boom at the base of the tank with outlets to one side of the tank's midline. […] This is adequate agitation by commercial spray boom standards.
# 4.26 kg of the milled glyphosate acid was tipped into the water.
# A commercial “Silvan” Trailing Boom Spray fitted with a 1000 L tank was use for this experiment. The boom was 10 m wide.
# Glyphosate acid (purity 95%) with a particle size where 95% can pass through a 1.2 mm sieve but not through a 0.5 mm sieve.
# A blend made from 0.979 kg of the surfactant Empigen BB, a cocobetaine surfactant, and 1.57 kg of the monoethanolamine (MEA) was poured into the tank and allowed to disperse for one minute. A sample of water was collected and analysed for pH.
# A plastic mesh insert with holes of 3-4 mm diameter was fitted into the mouth of the tank and 4.26 kg of glyphosate acid was tipped into the insert. […]
# A sample of water was then taken and analysed for pH.
# [2] = Dissolution of glyphosate acid on stirring into diluted Alkali Surfactant Blend in 20 L buckets; assay type: physicochemical; conditions: bucket, at the higher concentrations
# Description: Approximately 13 L of water was added to each of five 20 litre (“L”) plastic buckets (Table 1). Pack 1 was made by taking 37.5 parts monoethanolamine (“MEA”) and 25.3 parts of a cocobetaine surfactant called Empigen BB from Huntsman Chemical Company Australia. Pack 1 was also called the Alkaline-Surfactant Blend in this and later examples.
# Glyphosate acid technical material with a purity of 95% and a particle size smaller than 1 mm (Pack 2) was then added to the buckets at the rates given in Table 1 and stirred with a plastic paddle until all the acid disappeared. This took 3-5 minutes at the higher concentrations.
# Approximately 13 L of water was added to seven 20 L plastic buckets (Table 5). A blend of 37.5 parts MEA and 25.3 parts of the cocobetain surfactant Empigen BB was made to form the Alkali Surfactant Blend (Pack 1). Glyphosate acid (Pack 2) with a purity of 95% was then added to the buckets at the rates given in Table 5 and stirred with a plastic paddle until all the acid disappeared. This took 3-5 minutes at the higher concentrations.
# Approximately 13 L of water was added to seven 20 L plastic buckets (Table 22). The Alkali Surfactant Blend of monoethanolamine and the cocamidopropyl betaine (Pack 1) was then added to the water at the rates given in the Table. […]
smiles,measurement,setting,value
"O=C(O)CNCP(=O)(O)O [glyphosate acid, N-phosphonomethyl glycine]",dissolution of glyphosate acid in spray tank,"[1]; Example 4: 4.26 kg acid (95% passes 1.2 mm sieve) tipped into 900 L water with MEA/Empigen BB blend, agitated, no mesh insert",almost all disappeared over the next 5 minutes
same,time for glyphosate acid to disappear in spray tank,"[1]; Example 5: 4.26 kg milled acid (95% passes 0.5 mm sieve) tipped into 900 L water with MEA/Empigen BB blend, agitated, no mesh insert",≤ 10 min
same,undissolved acid in spray tank after washing through mesh,[1]; Example 6: 4.26 kg acid washed through 3-4 mm plastic mesh insert over 1-2 minutes into 900 L water with MEA/Empigen BB blend,no evidence of undissolved acid
same,time stirred until all the acid disappeared,[2]; about 13 L water with MEA/Empigen BB blend,3 to 5 min
same,time stirred until all the acid disappeared,[2]; about 13 L water with MEA/cocamidopropyl betaine blend,approximately 3 minutes
